This note sets out measurements from PubChem BioAssay AID1259407 (Chemical Carcinogenesis Research Information System (CCRIS), 2018).

Structures are written as SMILES. Activity calls are given as the source filed them. No rule for the calls is given here.

This data set concerns CCRIS mutagenicity, Ames/micronucleus/aberration tests. The experiment in a line: CCRIS mutagenicity studies.
[1] abbreviates: Test System: AMES SALMONELLA TYPHIMURIUM, Strain/Indicator: TA98, Metabolic Activation: HAMSTER, LIVER, S-9, AROCLOR 1254 (10%), Method: PREINCUBATION
The mark [2] stands for this setting: Test System: AMES SALMONELLA TYPHIMURIUM, Strain/Indicator: TA98, Metabolic Activation: NONE, Method: PREINCUBATION
[3] abbreviates: Test System: AMES SALMONELLA TYPHIMURIUM, Strain/Indicator: TA98, Metabolic Activation: RAT, LIVER, S-9, AROCLOR 1254 (10%), Method: PREINCUBATION
[4] abbreviates: Test System: AMES SALMONELLA TYPHIMURIUM, Strain/Indicator: TA100, Metabolic Activation: HAMSTER, LIVER, S-9, AROCLOR 1254 (10%), Method: PREINCUBATION
Setting [5] is: Test System: AMES SALMONELLA TYPHIMURIUM, Strain/Indicator: TA100, Metabolic Activation: NONE, Method: PREINCUBATION
The mark [6] stands for this setting: Test System: AMES SALMONELLA TYPHIMURIUM, Strain/Indicator: TA100, Metabolic Activation: RAT, LIVER, S-9, AROCLOR 1254 (10%), Method: PREINCUBATION
The mark [7] stands for this setting: Test System: AMES SALMONELLA TYPHIMURIUM, Strain/Indicator: TA1535, Metabolic Activation: HAMSTER, LIVER, S-9, AROCLOR 1254 (10%), Method: PREINCUBATION
The mark [8] stands for this setting: Test System: AMES SALMONELLA TYPHIMURIUM, Strain/Indicator: TA1535, Metabolic Activation: NONE, Method: PREINCUBATION
[9] abbreviates: Test System: AMES SALMONELLA TYPHIMURIUM, Strain/Indicator: TA1535, Metabolic Activation: RAT, LIVER, S-9, AROCLOR 1254 (10%), Method: PREINCUBATION
The mark [10] stands for this setting: Test System: AMES SALMONELLA TYPHIMURIUM, Strain/Indicator: TA1537, Metabolic Activation: NONE, Method: PREINCUBATION

As to `O[C@@H]1C=Cc2c(cc3ccc4cccc5ccc2c3c45)[C@H]1O`, where the note is “Test System: CHINESE HAMSTER V-79, Strain/Indicator: V-79/OUABAIN, Metabolic Activation: HAMSTER, EMBRYO, CELL-MEDIATED, Method: STANDARD PLATE”, the mutagenic call is “active; positive”.
In the case of `OCCCCl`, the mutagenic call (Test System: AMES SALMONELLA TYPHIMURIUM, Strain/Indicator: TA97, Metabolic Activation: HAMSTER, LIVER, S-9, AROCLOR 1254 (10%), Method: PREINCUBATION) was “inactive; negative”; the mutagenic call (Test System: AMES SALMONELLA TYPHIMURIUM, Strain/Indicator: TA97, Metabolic Activation: NONE, Method: PREINCUBATION) was “inactive; negative”; the mutagenic call (Test System: AMES SALMONELLA TYPHIMURIUM, Strain/Indicator: TA97, Metabolic Activation: RAT, LIVER, S-9, AROCLOR 1254 (10%), Method: PREINCUBATION) was “inactive; negative”; the mutagenic call under setting [1] is “inactive; negative”; the mutagenic call under setting [2] was “inactive; negative”; the mutagenic call under setting [3] is “inactive; negative”. The mutagenic call is “inactive; negative” under setting [4]; “inactive; negative” under setting [5]; “inactive; negative” under setting [6]; “active; positive” under setting [7]; “inactive; negative” under setting [8]; “active; positive” under setting [9].
With `COc1ccc(OC)cc1`, the mutagenic call is, setting by setting: (Test System: AMES SALMONELLA TYPHIMURIUM, Strain/Indicator: TA98, Metabolic Activation: HAMSTER, LIVER, S-9, AROCLOR 1254, Method: PREINCUBATION) “inactive; negative”; under setting [2], “inactive; negative”; (Test System: AMES SALMONELLA TYPHIMURIUM, Strain/Indicator: TA98, Metabolic Activation: RAT, LIVER, S-9, AROCLOR 1254, Method: PREINCUBATION) “inactive; negative”; (Test System: AMES SALMONELLA TYPHIMURIUM, Strain/Indicator: TA100, Metabolic Activation: HAMSTER, LIVER, S-9, AROCLOR 1254, Method: PREINCUBATION) “inactive; negative”; under setting [5], “inactive; negative”; (Test System: AMES SALMONELLA TYPHIMURIUM, Strain/Indicator: TA100, Metabolic Activation: RAT, LIVER, S-9, AROCLOR 1254, Method: PREINCUBATION) “inactive; negative”. For the same molecule, the mutagenic call by setting is: (Test System: AMES SALMONELLA TYPHIMURIUM, Strain/Indicator: TA1535, Metabolic Activation: HAMSTER, LIVER, S-9, AROCLOR 1254, Method: PREINCUBATION) “inactive; negative”; under setting [8], “inactive; negative”; (Test System: AMES SALMONELLA TYPHIMURIUM, Strain/Indicator: TA1535, Metabolic Activation: RAT, LIVER, S-9, AROCLOR 1254, Method: PREINCUBATION) “inactive; negative”; (Test System: AMES SALMONELLA TYPHIMURIUM, Strain/Indicator: TA1537, Metabolic Activation: HAMSTER, LIVER, S-9, AROCLOR 1254, Method: PREINCUBATION) “inactive; negative”; under setting [10], “inactive; negative”; (Test System: AMES SALMONELLA TYPHIMURIUM, Strain/Indicator: TA1537, Metabolic Activation: RAT, LIVER, S-9, AROCLOR 1254, Method: PREINCUBATION) “inactive; negative”.
In the case of `CCCCCCCCCCCCCOC(=O)c1ccccc1C(=O)OCCCCCCCCCCCCC`, the mutagenic call reads like this: under setting [1], “inactive; negative”; under setting [2], “inactive; negative”; under setting [3], “inactive; negative”; under setting [4], “inactive; negative”; under setting [5], “inactive; negative”; under setting [6], “inactive; negative”. Moreover, the mutagenic call runs as follows: under setting [7], “inactive; negative”; under setting [8], “inactive; negative”; under setting [9], “inactive; negative”; (Test System: AMES SALMONELLA TYPHIMURIUM, Strain/Indicator: TA1537, Metabolic Activation: HAMSTER, LIVER, S-9, AROCLOR 1254 (10%), Method: PREINCUBATION) “inactive; negative”; under setting [10], “inactive; negative”; (Test System: AMES SALMONELLA TYPHIMURIUM, Strain/Indicator: TA1537, Metabolic Activation: RAT, LIVER, S-9, AROCLOR 1254 (10%), Method: PREINCUBATION) “inactive; negative”.
As to `O=NN1CCCCCC1`, the mutagenic call by setting is: (Test System: AMES SALMONELLA TYPHIMURIUM, Strain/Indicator: TA100, Metabolic Activation: RABBIT, LIVER, S-9, Method: PREINCUBATION) “active; positive”; (Test System: AMES SALMONELLA TYPHIMURIUM, Strain/Indicator: TA100, Metabolic Activation: RABBIT, LUNG MACROPHAGES, Method: PREINCUBATION) “inactive; negative”; (Test System: AMES SALMONELLA TYPHIMURIUM, Strain/Indicator: TA100, Metabolic Activation: RABBIT, LUNG, CLARA CELLS, Method: PREINCUBATION) “inactive; negative”; (Test System: AMES SALMONELLA TYPHIMURIUM, Strain/Indicator: TA100, Metabolic Activation: RABBIT, LUNG, TYPE II CELLS, Method: PREINCUBATION) “inactive; negative”; (Test System: AMES SALMONELLA TYPHIMURIUM, Strain/Indicator: TA1530, Metabolic Activation: RABBIT, LIVER, S-9, Method: PREINCUBATION) “active; positive”; (Test System: AMES SALMONELLA TYPHIMURIUM, Strain/Indicator: TA1530, Metabolic Activation: RABBIT, LUNG MACROPHAGES, Method: PREINCUBATION) “inactive; negative”. For the same molecule, the mutagenic call (Test System: AMES SALMONELLA TYPHIMURIUM, Strain/Indicator: TA1530, Metabolic Activation: RABBIT, LUNG, CLARA CELLS, Method: PREINCUBATION) is “inactive; negative”; the mutagenic call (Test System: AMES SALMONELLA TYPHIMURIUM, Strain/Indicator: TA1530, Metabolic Activation: RABBIT, LUNG, TYPE II CELLS, Method: PREINCUBATION) was “inactive; negative”; the mutagenic call (Test System: UDS RABBIT LUNG CLARA CELLS, Strain/Indicator: THY INCORP, Metabolic Activation: NONE, Method: LIQUID SCINTILLATION COUNTING) was “active; positive”; the mutagenic call (Test System: UDS RABBIT LUNG MACROPHAGES, Strain/Indicator: THY INCORP, Metabolic Activation: NONE, Method: LIQUID SCINTILLATION COUNTING) was “inactive; negative”; the mutagenic call (Test System: UDS RABBIT LUNG TYPE II CELLS, Strain/Indicator: THY INCORP, Metabolic Activation: NONE, Method: LIQUID SCINTILLATION COUNTING) is “inactive; negative”.
`OCc1ccc(Cl)cc1`: under “Test System: AMES SALMONELLA TYPHIMURIUM, Strain/Indicator: TA100, Metabolic Activation: NONE, Method: STANDARD PLATE”, the mutagenic call is “inactive; negative”.
With `CCN(CC)CCOc1ccc(C(=C(Cl)c2ccccc2)c2ccccc2)cc1`, the mutagenic call is, setting by setting: under setting [2], “inactive; negative”; (Test System: AMES SALMONELLA TYPHIMURIUM, Strain/Indicator: TA98, Metabolic Activation: RAT LIVER S-9, 3-METHYLCHOLANTHRENE, Method: PREINCUBATION) “active; positive”; (Test System: AMES SALMONELLA TYPHIMURIUM, Strain/Indicator: TA98, Metabolic Activation: RAT LIVER S-9, AROCLOR 1254, Method: PREINCUBATION) “active; positive”; (Test System: AMES SALMONELLA TYPHIMURIUM, Strain/Indicator: TA98, Metabolic Activation: RAT LIVER S-9, PHENOBARBITAL, Method: PREINCUBATION) “active; positive”; (Test System: AMES SALMONELLA TYPHIMURIUM, Strain/Indicator: TA98, Metabolic Activation: RAT LIVER S-9, STREPTOZOCINE, Method: PREINCUBATION) “active; positive”.
